# Assays:
# [1] = system: Mycobacterium tuberculosis; assay: Antitubercular activity against multidrug-resistant Mycobacterium tuberculosis 12525 after 7 days by microplate alamar blue assay; type: functional; conditions: Mycobacterium tuberculosis, 12525, 168 h
# [2] = system: Mycobacterium tuberculosis; assay: Antitubercular activity against multidrug-resistant Mycobacterium tuberculosis 14231 after 7 days by microplate alamar blue assay; type: functional; conditions: Mycobacterium tuberculosis, 14231, 168 h
Compound,MIC90 [1] [µM],MIC90 [2] [µM]
COc1ccc(CN2CC3(CCN(c4nc(=O)c5cc(C(F)(F)F)cc([N+](=O)[O-])c5s4)CC3)C2)cc1,0.119,0.123
O=c1nc(N2CCC3(CCN(Cc4ccc(C(F)(F)F)cc4)CC3)CC2)sc2c([N+](=O)[O-])cc(C(F)(F)F)cc12,< 0.035,< 0.035
O=c1nc(N2CCC3(CCN(Cc4cccc(F)c4)CC3)CC2)sc2c([N+](=O)[O-])cc(C(F)(F)F)cc12,< 0.035,< 0.035
CO[C@H]1/C=C/O[C@@]2(C)Oc3c(C)c(O)c4c(O)c(c(/C=N/N5CCN(C)CC5)c(O)c4c3C2=O)NC(=O)/C(C)=C\C=C\[C@H](C)[C@H](O)[C@@H](C)[C@@H](O)[C@@H](C)[C@H](OC(C)=O)[C@@H]1C [RIFAMPIN],27.2,> 48.6
O=c1nc(N2CCC3(CCN(Cc4ccc(Br)cc4)CC3)CC2)sc2c([N+](=O)[O-])cc(C(F)(F)F)cc12,0.092,0.086
CCOC(=O)CN1CCC2(CCN(c3nc(=O)c4cc(C(F)(F)F)cc([N+](=O)[O-])c4s3)CC2)C1,0.08,0.06
O=c1nc(N2CCN(CC3CCCCC3)CC2)sc2c([N+](=O)[O-])cc(C(F)(F)F)cc12 [MACOZINONE],< 0.035,< 0.035
O=c1nc(N2CCC3(CCN(Cc4ccc(F)cc4)C3)CC2)sc2c([N+](=O)[O-])cc(C(F)(F)F)cc12,< 0.035,0.034
O=c1nc(N2CCC3(CCN(Cc4ccccc4)C3)CC2)sc2c([N+](=O)[O-])cc(C(F)(F)F)cc12,< 0.035,< 0.035
O=c1nc(N2CCC3(CCN(Cc4cc(F)cc(F)c4)CC3)CC2)sc2c([N+](=O)[O-])cc(C(F)(F)F)cc12,< 0.035,< 0.035
COc1ccc(CN2CCC3(CCN(c4nc(=O)c5cc(C(F)(F)F)cc([N+](=O)[O-])c5s4)CC3)C2)cc1,0.056,0.095
NNC(=O)c1ccncc1 [ISONIAZID],> 292,34.5

# Source: ChEMBL document CHEMBL4033756, “Identification of Better Pharmacokinetic Benzothiazinone Derivatives as New Antitubercular Agents” (ACS Med Chem Lett, 2017)
